# How the values were obtained:
# [1] = biological target: T1, Aβ42 fibrillogenesis (amyloid peptide) (Homo sapiens, UniProt P05067); assay: Congo Red spectrophotometric assay of amyloid fibrillogenesis; format: biochemical
# T1 construct: purchased Invitrogen (Camarillo, Calif.)
# Source text: In addition, the inhibition of the oligomerization of amyloid peptide (inhibition of amyloid fibrillogenesis) can be estimated by the method described by Klunk, et al. using Congo Red (Klunk, W. E., Jacob, R. F., Mason, R. P. (1999) “Quantifying amyloid β-peptide aggregation using the congo red-Aβ spectrophotometric assay” Anal. Biochem. 266:66-76).
# The inhibition of the oligomerization of amyloid peptide was estimated by the method described by Klunk, et al. using Congo Red (Klunk, W. E., Jacob, R. F., Mason, R. P. (1999) “Quantifying amyloid β-peptide aggregation using the congo red-Aβ spectrophotometric assay” Anal. Biochem. 266, 66-76). Briefly, amyloid peptides were prepared in 40 μM in Tris-Acetate (40 mM:8 mM) buffer. Acriflavine HCl to be tested for inhibition of fibrillogenesis was dissolved in phosphate buffered saline, and then diluted 100 fold into Tris-Acetate buffer. Aliquots of 100 μl of amyloid peptide were incubated with acriflavine at room temperature for 5 days before measuring the absorbance. BSA was included in the buffer as a negative control. […] The absorbance of Congo Red at 541 nm was read using a Perkin-Elmer Victor3 1420 Multilabel Counter. The inhibition of oligomerization was calculated using the following formula: Inhibition=(Abs541 of sample-Abs541 of control)/(Abs541 of Amyloid peptide-Abs541 of BSA).
# [2] = test system: microorganisms; details: generally; cited from earlier work
# [3] = cited from earlier work
# [4] = biological target: T2, amyloid fibrils (Homo sapiens, UniProt P05067); assay: Incubation of acriflavine with amyloid fibrils (fibril dissociation); format: biochemical; details: in vitro
# T2 construct: effective to reduce or reverse amyloid fibril formation (Aβ42 fibrillogenesis) in vitro
# [5] = human; cited from earlier work
# [6] = test system: PSI^+ induction in yeast cells; assay: PSI^+ induction assay in yeast; format: cell-based; details: FIG. 2; 24 h, 50 μM copper sulfate, 30° C.
# [7] = biological target: yeast prion protein Sup-NM (Saccharomyces cerevisiae, UniProt P05453); format: biochemical; details: thioflavin T fluorescence, 25° C.
# yeast prion protein Sup-NM, sequence (P05453 1-254 limits assumed): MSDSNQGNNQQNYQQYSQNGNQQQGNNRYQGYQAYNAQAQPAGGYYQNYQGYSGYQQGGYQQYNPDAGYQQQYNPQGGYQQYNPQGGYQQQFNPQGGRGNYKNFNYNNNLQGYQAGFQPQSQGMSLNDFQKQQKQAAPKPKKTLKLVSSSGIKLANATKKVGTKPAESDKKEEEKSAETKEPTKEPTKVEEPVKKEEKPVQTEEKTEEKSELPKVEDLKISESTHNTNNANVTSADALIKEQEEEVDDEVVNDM
# T1 sequence (P05067 672-713 limits assumed): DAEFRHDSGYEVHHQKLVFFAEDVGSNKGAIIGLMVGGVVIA
# T2 sequence (P05067 672-713 limits assumed): as above
substance,measurement,setting,value
Acriflavine HCl,inhibition of amyloid fibrillogenesis,"[1]; FIG. 1, Aβ42",concentration-dependent inhibition
same,IC50 for inhibition of fibrillogenesis,"[1]; amyloid peptide 40 μM, room temperature, 5 days, Congo Red Abs 541 nm",approximately 1.7 μg/mL
Acriflavine neutral,concentration inhibiting the growth of microorganisms,[2],10^−4 to 10^−5 M
same,toxicity,[3]; clinically used dosage range,low toxicity
same,effect on hematopoietic system and liver,[3]; repetitive administrations for a prolonged period,"does not suppress the hematopoietic system, nor damage the liver"
acriflavine,amount of amyloid peptide monomer after incubation with amyloid fibrils,[4],increase in the amount of amyloid peptide monomer
same,crossing of the blood-brain barrier,[5],able to cross the blood-brain barrier
same,inhibition of PSI^+ induction in yeast cells,[6],concentration dependent inhibition
same,inhibition of amyloid formation of yeast prion protein Sup-NM,[7],inhibit in a dose-dependent manner
